# Entries after “also recorded” stand apart in the source; their conditions may differ.
# Test system: Sprague_Dawley/Crl:CD (SD)IGS BR rats
# Assay: Liver histopathology of treated rats
# Assay type: in vivo, rat
# Conditions: 1400 mg/kg oral gavage, 24 hours
# Description: Four control rats were administered a quantity of methylcellulose vehicle (no acetaminophen) having a volume approximately equal to that received by treated rats. After 24 hours, all rats were euthanized and livers were collected by necropsy. At necropsy, blood samples were collected via the vena cava (approximately 0.5 ml) in microtainer tubes. All livers were then fixed in 10% neutral buffered formalin and processed for histopathology by trimming trimmed, dehydrating, embedding in paraffin, sectioning, mounting on glass slides, and staining with hematoxylin and eosin stains.
# Microscopically, there was a moderate centrilobular degeneration which was multifocal in two of the animals and was characterized by hepatocellular degeneration and necrosis, edema fluid, hemorrhages, and infiltration of mononuclear cells and occasional neutrophils in the other two animals. The severity and distribution of the microscopic lesions correlated well with the measured increases in ALT, AST, 5′NT, and albumin RT-PCR.
compound,measurement,setting,value
CC(=O)Nc1ccc(O)cc1 [acetaminophen],Histopathological analysis of liver,four rats,moderate levels of damage
same,Hepatocellular Degeneration,individual rats (animals 1-4),Diffuse; also recorded: Multifocal
